Our source for the EC50 values is US9382254B2, “Compounds and pharmaceutical compositions thereof for the treatment of cystic fibrosis” (Galapagos NV, priority 2013, dated 2016).

In the test the target is T1, CFTR ΔF508 mutant (Homo sapiens, UniProt P13569, DEL508-508).
T1 construct: expressed in transfected cells; host or cells: CFBE41o- (adenoviral transduction)
Nature of the test: YFP-halide influx assay for the CFTR-ΔF508 mutation, gluconate buffer. Conditions: CFBE41o- cells, forskolin 10.67 μM. Type of test: cell-based. The method, boiled down: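 Channel opening is read as the fall in YFP fluorescence over 7 s following iodide injection, expressed as 1-F/F0 and plotted versus compound concentration to derive EC50. Cells used were CFBE41o- expressing adenoviral ΔF508 CFTR and halide-sensitive YFP, rescued by 24 h at 27 °C or 24 h modulator treatment at 37 °C.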

Structures are written as SMILES.

Broadly, the EC50 is the midpoint of the concentration-response curve. Read a high EC50 as a need for much substance.

T1 sequence (P13569 with tags, fused parts or gaps DEL508-508): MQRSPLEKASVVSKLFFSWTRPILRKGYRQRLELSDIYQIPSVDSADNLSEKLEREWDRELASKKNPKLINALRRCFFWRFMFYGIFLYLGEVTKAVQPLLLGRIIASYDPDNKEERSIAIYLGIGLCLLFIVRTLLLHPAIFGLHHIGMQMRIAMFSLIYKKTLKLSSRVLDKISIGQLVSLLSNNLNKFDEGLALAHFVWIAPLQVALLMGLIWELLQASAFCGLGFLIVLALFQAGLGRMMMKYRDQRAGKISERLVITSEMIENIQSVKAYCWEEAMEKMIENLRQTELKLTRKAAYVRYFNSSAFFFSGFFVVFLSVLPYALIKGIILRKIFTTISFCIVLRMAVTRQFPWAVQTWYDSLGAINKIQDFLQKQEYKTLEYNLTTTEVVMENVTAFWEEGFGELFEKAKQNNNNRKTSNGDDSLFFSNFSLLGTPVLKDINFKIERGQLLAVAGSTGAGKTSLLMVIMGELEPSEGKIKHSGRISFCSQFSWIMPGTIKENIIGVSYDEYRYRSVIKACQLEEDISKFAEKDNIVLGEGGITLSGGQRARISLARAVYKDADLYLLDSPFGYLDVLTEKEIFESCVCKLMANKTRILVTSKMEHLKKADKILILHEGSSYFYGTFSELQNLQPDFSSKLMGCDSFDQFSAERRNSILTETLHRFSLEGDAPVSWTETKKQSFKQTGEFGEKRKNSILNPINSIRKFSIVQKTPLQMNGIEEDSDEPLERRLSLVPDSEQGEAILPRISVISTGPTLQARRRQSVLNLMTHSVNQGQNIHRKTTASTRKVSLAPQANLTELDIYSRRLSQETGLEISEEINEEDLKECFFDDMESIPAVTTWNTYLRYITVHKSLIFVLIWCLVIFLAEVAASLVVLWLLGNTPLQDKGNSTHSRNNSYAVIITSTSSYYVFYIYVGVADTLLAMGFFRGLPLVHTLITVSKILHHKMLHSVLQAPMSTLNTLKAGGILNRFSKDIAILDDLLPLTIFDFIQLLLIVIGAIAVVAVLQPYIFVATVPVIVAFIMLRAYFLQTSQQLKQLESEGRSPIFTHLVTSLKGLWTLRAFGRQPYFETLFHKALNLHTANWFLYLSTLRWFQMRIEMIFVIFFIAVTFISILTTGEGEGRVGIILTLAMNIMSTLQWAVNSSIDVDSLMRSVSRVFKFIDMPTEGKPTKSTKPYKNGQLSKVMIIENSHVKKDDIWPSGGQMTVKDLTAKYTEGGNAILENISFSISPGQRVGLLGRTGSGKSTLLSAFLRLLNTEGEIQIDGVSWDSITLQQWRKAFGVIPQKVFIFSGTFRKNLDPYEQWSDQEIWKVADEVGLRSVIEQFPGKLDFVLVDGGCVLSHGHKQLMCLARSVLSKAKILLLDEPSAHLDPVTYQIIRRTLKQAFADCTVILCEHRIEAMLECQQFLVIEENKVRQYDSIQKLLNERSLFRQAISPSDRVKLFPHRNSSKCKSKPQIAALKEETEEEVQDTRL

The compound `Cc1c(S(=O)(=O)N2CCOCC2)sc(NC(=O)c2ccccc2C(F)(F)F)c1C(N)=O` [Compound 105, 4-methyl-5-(morpholinosulfonyl)-2-(2-(trifluoromethyl)benzamido) thiophene-3-carboxamide] displayed an EC50 of 396 nM.
For `CN(Cc1ccc(F)cc1)S(=O)(=O)c1cc(C(N)=O)c(NC(=O)c2ccccc2F)s1` [Compound 106, 2-(2-fluorobenzamido)-5-(N-(4-fluorobenzyl)-N-methylsulfamoyl) thiophene-3-carboxamide] the value was 213 nM; for `CN(C(C)(C)C)S(=O)(=O)c1cc(C(N)=O)c(NC(=O)c2ccccc2F)s1` [Compound 107, 5-(N-tert-butyl-N-methylsulfamoyl)-2-(2-fluorobenzamido) thiophene-3-carboxamide], 130 nM.
The same measure for `CN(CC(F)F)S(=O)(=O)c1cc(C(N)=O)c(NC(=O)c2ccccc2F)s1` [Compound 108, 5-(N-(2,2-difluoroethyl)-N-methylsulfamoyl)-2-(2-fluorobenzamido) thiophene-3-carboxamide]: 198 nM.
For `CCc1cc(C(=O)Nc2sc(S(=O)(=O)c3ccc(F)cc3)cc2C(N)=O)n[nH]1` [Compound 110, N-(3-carbamoyl-5-(4-fluorophenylsulfonyl)thiophen-2-yl)-5-ethyl-1H-pyrazole-3-carboxamide] the value was 144 nM; for `CC(C)(C)C(=O)Nc1sc(S(=O)(=O)c2ccc(F)cc2)cc1C(N)=O` [Compound 112, 5-(4-fluorophenylsulfonyl)-2-pivalamidothiophene-3-carboxamide], 352 nM; for `NC(=O)c1cc(S(=O)(=O)c2cccc(F)c2)sc1NC(=O)c1ccccc1F` [Compound 115, 2-(2-fluorobenzamido)-5-(3-fluorophenylsulfonyl) thiophene-3-carboxamide], 235 nM.
Consider `NC(=O)c1cc(S(=O)(=O)c2ccccc2F)sc1NC(=O)c1ccccc1F` [Compound 117, 2-(2-fluorobenzamido)-5-(2-fluorophenylsulfonyl) thiophene-3-carboxamide], for which the EC50 stood at 138 nM. This EC50 lies about 1.7-fold lower than the previous one.
Regarding `CC(C)(C)C(=O)Nc1sc(S(=O)(=O)c2ccc(F)c(F)c2)cc1C(N)=O` [Compound 120, 5-(3,4-difluorophenylsulfonyl)-2-pivalamidothiophene-3-carboxamide], the EC50 was determined as 488 nM.
Compound `Cc1ccc(CN(C)S(=O)(=O)c2cc(C(N)=O)c(NC(=O)c3ccccc3F)s2)cc1` [Compound 124, 2-(2-fluorobenzamido)-5-(N-methyl-N-(4-methylbenzyl)sulfamoyl) thiophene-3-carboxamide] returned an EC50 of 503 nM.
Consider `CN(CC#N)S(=O)(=O)c1cc(C(N)=O)c(NC(=O)c2ccccc2F)s1` [Compound 125, 5-(N-(cyanomethyl)-N-methylsulfamoyl)-2-(2-fluorobenzamido) thiophene-3-carboxamide], for which the response was half-maximal at 580 nM (EC50). The EC50 values of the last two compounds are within 1.5-fold of each other.
The same measure for `NC(=O)c1cc(S(=O)(=O)N2CC(F)(F)C2)sc1NC(=O)c1ccccc1F` [Compound 126, 5-(3,3-diflluoroazetidin-1-ylsulfonyl)-2-(2-fluorobenzamido) thiophene-3-carboxamide]: 191 nM.
For `CS(=O)(=O)c1cc(C(N)=O)c(NC(=O)c2ccccc2F)s1` [Compound 127, 2-(2-fluorobenzamido)-5-(methylsulfonyl) thiophene-3-carboxamide] the value was 659 nM.
For `CCS(=O)(=O)c1cc(C(N)=O)c(NC(=O)c2ccccc2F)s1` [Compound 128, 5-(ethylsulfonyl)-2-(2-fluorobenzamido) thiophene-3-carboxamide] the value was 400 nM; for `NC(=O)c1cc(S(=O)(=O)C2CCCCC2)sc1NC(=O)c1ccccc1F` [Compound 129, 5-(cyclohexylsulfonyl)-2-(2-fluorobenzamido) thiophene-3-carboxamide], 275 nM; for `COc1ccc(CS(=O)(=O)c2cc(C(N)=O)c(NC(=O)c3ccccc3F)s2)cc1` [Compound 130, 2-(2-fluorobenzamido)-5-(4-methoxybenzylsulfonyl) thiophene-3-carboxamide], 383 nM.
Compound `NC(=O)c1cc(S(=O)(=O)N2CCOCC2)sc1NC(=O)C1(O)CC1` [Compound 131, 2-(1-hydroxycyclopropanecarboxamido)-5-(morpholinosulfonyl) thiophene-3-carboxamide] displayed an EC50 of 921 nM.
For `Cc1nc(C(=O)Nc2sc(S(=O)(=O)N3CCOCC3)cc2C(N)=O)cs1` [Compound 132, N-(3-carbamoyl-5-(morpholinosulfonyl)thiophen-2-yl)-2-methylthiazole-4-carboxamide] the value was 3330 nM; for `NC(=O)c1cc(S(=O)(=O)N2CCOCC2)sc1NC(=O)c1ccc(Cl)cc1F` [Compound 133, 2-(4-chloro-2-fluorobenzamido)-5-(morpholinosulfonyl) thiophene-3-carboxamide], 271 nM; for `NC(=O)c1cc(S(=O)(=O)N2CCOCC2)sc1NC(=O)c1cccc(C2CC2)c1` [Compound 134, 2-(3-cyclopropylbenzamido)-5-(morpholinosulfonyl) thiophene-3-carboxamide], 946 nM.
The same measure for `COc1cc(C)ccc1C(=O)Nc1sc(S(=O)(=O)N2CCOCC2)cc1C(N)=O` [Compound 135, 2-(2-methoxy-4-methylbenzamido)-5-(morpholinosulfonyl) thiophene-3-carboxamide]: > 1000 nM; for `Cc1ccccc1C(=O)Nc1sc(S(=O)(=O)N2CCOCC2)cc1C(N)=O` [Compound 136, 2-(2-methylbenzamido)-5-(morpholinosulfonyl) thiophene-3-carboxamide]: 291 nM.
For `NC(=O)c1cc(S(=O)(=O)N2CCOCC2)sc1NC(=O)c1cccc(O)c1` [Compound 137, 2-(3-hydroxybenzamido)-5-(morpholinosulfonyl) thiphene-3-carboxamide] the value was 263 nM; for `NC(=O)c1cc(S(=O)(=O)N2CCOCC2)sc1NC(=O)c1ccc(F)cc1F` [Compound 138, 2-(2,4-difluorobenzamido)-5-(morpholinosulfonyl) thiophene-3-carboxamide], 313 nM.
Turning to `NC(=O)c1cc(S(=O)(=O)N2C[C@@H]3C[C@H]2CO3)sc1NC(=O)c1ccccc1F` [Compound 144, 5-((1S,4S)-2-oxa-5-azabicyclo[2.2.1]heptan-5-ylsulfonyl)-2-(2-fluorobenzamido) thiophene-3-carboxamide], the concentration giving a half-maximal response (EC50) was found to be 365 nM.
Turning to `NC(=O)c1cc(S(=O)(=O)N2CCCOCC2)sc1NC(=O)c1cc[nH]n1` [Compound 146, N-(5-(1,4-oxazepan-4-ylsulfonyl)-3-carbamoylthiophen-2-yl)-1H-pyrazole-3-carboxamide], it took 241 nM to reach a half-maximal effect (EC50).
The compound `COc1ccc(CN(C)S(=O)(=O)c2cc(C(N)=O)c(NC(=O)c3ccccc3F)s2)cc1` [Compound 147, 2-(2-fluorobenzamido)-5-(N-(4-methoxybenzyl)-N-methylsulfamoyl)thiophene-3-carboxamide] came in with a concentration giving a half-maximal response (EC50) of 242 nM.
Consider `CC(C)(C)OC(=O)N1CCC2(CC1)CCN(S(=O)(=O)c1cc(C(N)=O)c(NC(=O)c3ccccc3F)s1)C2` [Compound 148, tert-butyl 2-(4-carbamoyl-5-(2-fluorobenzamido)thiophen-2-ylsulfonyl)-2,8-diazaspiro[4.5]decane-8-carboxylate], for which a half-maximal effect (EC50) was put at 344 nM.
For `CC(C)(O)C1CCN(S(=O)(=O)c2cc(C(N)=O)c(NC(=O)c3ccccc3F)s2)CC1` [Compound 149, 2-(2-fluorobenzamido)-5-(4-(2-hydroxypropan-2-yl)piperidin-1-ylsulfonyl) thiophene-3-carboxamide], the half-maximal effective concentration (EC50) was 517 nM.
In turn, `NC(=O)c1cc(S(=O)(=O)N2CCc3ccccc3C2)sc1NC(=O)c1ccccc1F` [Compound 150] came in with an EC50 of 638 nM.
`NC(=O)c1cc(S(=O)(=O)N2Cc3ccccc3C2)sc1NC(=O)c1ccccc1F` [Compound 151, 2-(2-fluorobenzamido)-5-(isoindolin-2-ylsulfonyl)thiophene-3-carboxamide] displayed an EC50 of 357 nM.
For `CN1CCC(N(C)S(=O)(=O)c2cc(C(N)=O)c(NC(=O)c3ccccc3F)s2)CC1` [Compound 155, 2-(2-fluorobenzamido)-5-(N-methyl-N-(1-methylpiperidin-4-yl)sulfamoyl) thiophene-3-carboxamide] the value was > 1000 nM; for `NC(=O)c1cc(S(=O)(=O)N(Cc2cccc(F)c2)C2CC2)sc1NC(=O)c1ccccc1F` [Compound 156, 5-(N-cyclopropyl-N-(3-fluorobenzyl)sulfamoyl)-2-(2-fluorobenzamido) thiophene-3-carboxamide], 361 nM; for `NC(=O)c1cc(S(=O)(=O)N2CCC(c3ccccc3)CC2)sc1NC(=O)c1ccccc1F` [Compound 159, 2-(2-fluorobenzamido)-5-(4-phenylpiperidin-1-ylsulfonyl)thiophene-3-carboxamide], 407 nM.
The same measure for `CN(C1CCOCC1)S(=O)(=O)c1cc(C(N)=O)c(NC(=O)c2ccccc2F)s1` [Compound 161, 2-(2-fluorobenzamido)-5-(N-methyl-N-(tetrahydro-2H-pyran-4-yl)sulfamoyl) thiophene-3-carboxamide]: 221 nM.
For `N#CC1CCN(S(=O)(=O)c2cc(C(N)=O)c(NC(=O)c3ccccc3F)s2)CC1` [Compound 162, 5-(4-cyanopiperidin-1-ylsulfonyl)-2-(2-fluorobenzamido) thiophene-3-carboxamide] the value was 331 nM; for `CC(C)S(=O)(=O)c1cc(C(N)=O)c(NC(=O)c2ccccc2F)s1` [Compound 163, 2-(2-fluorobenzamido)-5-(isopropylsulfonyl) thiophene-3-carboxamide], 272 nM; for `CC(C)(C)S(=O)(=O)c1cc(C(N)=O)c(NC(=O)c2ccccc2F)s1` [Compound 164, 5-(tert-butylsulfonyl)-2-(2-fluorobenzamido) thiophene-3-carboxamide], > 1000 nM.
